What all share (format): functional
In assay [1] the test system is Aspergillus niger. Briefly: Antifungal activity against Aspergillus niger at 100 ppm by disk diffusion method. More on the design: unit not given here. A general note: In agar diffusion tests the substance spreads into inoculated agar from a disc or well.
For assay [2], the system named is Staphylococcus aureus. Kind of assay: Antibacterial activity against Staphylococcus aureus at 100 ppm by disk diffusion method. The arrangement: unit not given here.
Assay [3] concerns Helminthosporium. Briefly: Antifungal activity against Helminthosporium oryzae at 50 ppm by disc diffusion method. The arrangement: unit not given here.
Assay [4] concerns Helminthosporium. Kind of assay: Antifungal activity against Helminthosporium oryzae at 100 ppm by disc diffusion method. The arrangement: unit not given here.
Assay [5] concerns Escherichia coli. Kind of assay: Antibacterial activity against Escherichia coli at 100 ppm by disk diffusion method. The arrangement: unit not given here.
For assay [6], the system named is Staphylococcus aureus. Kind of assay: Antibacterial activity against Staphylococcus aureus at 25 ppm by disk diffusion method. The arrangement: unit not given here.
For assay [7], the system named is Escherichia coli. Briefly: Antibacterial activity against Escherichia coli at 25 ppm by disk diffusion method. The arrangement: unit not given here.
For assay [8], the system named is Aspergillus niger. Briefly: Antifungal activity against Aspergillus niger at 50 ppm by disk diffusion method. More on the design: unit not given here.
Assay [9] deals with Helminthosporium. Kind of assay: Antifungal activity against Helminthosporium oryzae at 25 ppm by disc diffusion method. More on the design: unit not given here.
Assay [10] concerns Aspergillus niger. Briefly: Antifungal activity against Aspergillus niger at 25 ppm by disk diffusion method. The arrangement: unit not given here.
The test system of assay [11] is Staphylococcus aureus. Briefly: Antibacterial activity against Staphylococcus aureus at 50 ppm by disk diffusion method.
The test system of assay [12] is Escherichia coli. Briefly: Antibacterial activity against Escherichia coli at 50 ppm by disk diffusion method. The arrangement: unit not given here.

These results are taken from ChEMBL document CHEMBL3046771, “Synthesis, spectral, and antimicrobial evaluation of some new 8-membered phosphorus heterocyclic compounds” (2011).

Turning to `CCC(C)OCP1(=S)CNc2cccc3cccc(c23)NC1` (centres undefined), the “inhibition zone (IZ)” value with Aspergillus niger [1] stood at 14; in the assay on Staphylococcus aureus [2] it was 13; in the assay with Helminthosporium [3], 12; in the assay on Helminthosporium [4], 13; with Escherichia coli [5], 14; in the assay with Staphylococcus aureus [6], 8. Moreover, the “inhibition zone (IZ)” value in the assay with Escherichia coli [7] amounted to 9; in the assay on Aspergillus niger [8], 10; in the assay on Helminthosporium [9] it was 8; in the assay with Aspergillus niger [10], 9; in the assay on Staphylococcus aureus [11], 12%; in the assay with Escherichia coli [12], 10.

Regarding `CCC(C)OCP1(=[Se])CNc2cccc3cccc(c23)NC1` (centres undefined), the “inhibition zone (IZ)” value amounted to 13 in the assay on Aspergillus niger [1]; 14 in the assay on Staphylococcus aureus [2]; 10 in the assay on Helminthosporium [3]; 14 with Helminthosporium [4]; 13 in the assay with Escherichia coli [5]; 7 in the assay with Staphylococcus aureus [6]. Also, the “inhibition zone (IZ)” value worked out at 8 in the assay with Escherichia coli [7]; 10 in the assay with Aspergillus niger [8]; 7 in the assay with Helminthosporium [9]; 8 with Aspergillus niger [10]; 10% in the assay on Staphylococcus aureus [11]; 10 in the assay with Escherichia coli [12].

As to `CC(NCP1(=[Se])CNc2cccc3cccc(c23)NC1)c1ccccc1` (centres undefined), the “inhibition zone (IZ)” value with Aspergillus niger [1] worked out at 12; in the assay with Staphylococcus aureus [2] it was 11; in the assay with Helminthosporium [3], 8; with Helminthosporium [4], 9; in the assay with Escherichia coli [5], 10; in the assay with Staphylococcus aureus [6], 5. Besides, the “inhibition zone (IZ)” value was determined as 3 with Escherichia coli [7]; 9 with Aspergillus niger [8]; 5 in the assay on Helminthosporium [9]; 6 in the assay on Aspergillus niger [10]; 9% in the assay with Staphylococcus aureus [11]; 5 in the assay with Escherichia coli [12].

As to `CCC(CO)NCP1(=S)CNc2cccc3cccc(c23)NC1` (centres undefined), the “inhibition zone (IZ)” value in the assay on Aspergillus niger [1] came out at 10; with Staphylococcus aureus [2], 11; with Helminthosporium [3], 9; in the assay on Helminthosporium [4] it was 11; in the assay with Escherichia coli [5] it was 10; in the assay on Staphylococcus aureus [6], 5. In addition, the “inhibition zone (IZ)” value in the assay with Escherichia coli [7] turned out to be 8; with Aspergillus niger [8], 10; with Helminthosporium [9], 5; in the assay on Aspergillus niger [10], 8; in the assay with Staphylococcus aureus [11], 9%; in the assay on Escherichia coli [12] it was 10.

As to `CC1(C)S[C@@H]2[C@H](NC(=O)Cc3ccccc3)C(=O)N2[C@H]1C(=O)O` [PENICILLIN G], in the assay with Staphylococcus aureus [11], the “inhibition zone (IZ)” value came out at 8%.

Turning to `[Se]=P1(CBr)CNc2cccc3cccc(c23)NC1`, the “inhibition zone (IZ)” value with Aspergillus niger [1] amounted to 10; in the assay on Staphylococcus aureus [2], 9; in the assay with Helminthosporium [3], 8; in the assay on Helminthosporium [4], 9; in the assay with Escherichia coli [5] it was 12; with Escherichia coli [7] it was 4. The “inhibition zone (IZ)” value in the assay on Aspergillus niger [8] was determined as 6; in the assay on Aspergillus niger [10] it was 4; in the assay with Staphylococcus aureus [11] it was 8%; in the assay on Escherichia coli [12] it was 6.

As for `CC(Cc1ccccc1)OCP1(=[Se])CNc2cccc3cccc(c23)NC1` (centres undefined), the “inhibition zone (IZ)” value in the assay with Aspergillus niger [1] was determined as 10; in the assay with Staphylococcus aureus [2], 12; with Helminthosporium [3], 10; in the assay with Helminthosporium [4], 12; in the assay on Escherichia coli [5], 10; with Staphylococcus aureus [6] it was 7. Also, the “inhibition zone (IZ)” value in the assay with Escherichia coli [7] stood at 7; with Aspergillus niger [8], 8; in the assay with Helminthosporium [9] it was 7; in the assay with Aspergillus niger [10], 7; in the assay with Staphylococcus aureus [11], 10%; in the assay with Escherichia coli [12], 8.

With `CC(Cc1ccccc1)OCP1(=S)CNc2cccc3cccc(c23)NC1` (centres undefined), the “inhibition zone (IZ)” value was found to be 13 in the assay with Aspergillus niger [1]; 10 in the assay with Staphylococcus aureus [2]; 9 in the assay on Helminthosporium [3]; 10 with Helminthosporium [4]; 8 in the assay on Escherichia coli [5]; 7 in the assay with Staphylococcus aureus [6]. In addition, the “inhibition zone (IZ)” value with Escherichia coli [7] is on record as 8; in the assay on Aspergillus niger [8] it was 9; with Helminthosporium [9], 7; in the assay on Aspergillus niger [10], 8; in the assay with Staphylococcus aureus [11] it was 9%; in the assay with Escherichia coli [12] it was 9.

As for `CCC(CO)NCP1(=[Se])CNc2cccc3cccc(c23)NC1` (centres undefined), the “inhibition zone (IZ)” value in the assay with Aspergillus niger [1] was found to be 9; in the assay with Staphylococcus aureus [2], 10; with Helminthosporium [3] it was 9; with Helminthosporium [4] it was 10; in the assay on Escherichia coli [5], 19; in the assay with Staphylococcus aureus [6], 8. Further, the “inhibition zone (IZ)” value in the assay with Escherichia coli [7] amounted to 7; in the assay on Aspergillus niger [8] it was 6; with Helminthosporium [9] it was 6; in the assay on Aspergillus niger [10], 4; in the assay with Staphylococcus aureus [11] it was 6%; in the assay on Escherichia coli [12], 6.

For `CC(NCP1(=S)CNc2cccc3cccc(c23)NC1)c1ccccc1` (centres undefined), the “inhibition zone (IZ)” value with Aspergillus niger [1] came to 9; in the assay with Staphylococcus aureus [2], 12; with Helminthosporium [3] it was 7; in the assay on Helminthosporium [4] it was 12; in the assay on Escherichia coli [5], 11; in the assay with Staphylococcus aureus [6], 8. The “inhibition zone (IZ)” value in the assay on Escherichia coli [7] worked out at 6; in the assay with Aspergillus niger [8] it was 7; with Helminthosporium [9], 8; with Aspergillus niger [10] it was 6; in the assay with Staphylococcus aureus [11], 7%; in the assay with Escherichia coli [12], 7.

Turning to `S=P1(CBr)CNc2cccc3cccc(c23)NC1`, the “inhibition zone (IZ)” value in the assay on Aspergillus niger [1] is given as 9; with Staphylococcus aureus [2] it was 13; in the assay on Helminthosporium [3], 11; with Helminthosporium [4] it was 13; with Escherichia coli [5], 10; in the assay with Staphylococcus aureus [6] it was 9. In addition, the “inhibition zone (IZ)” value was 3 in the assay with Escherichia coli [7]; 5 in the assay on Aspergillus niger [8]; 9 in the assay with Helminthosporium [9]; 3 in the assay on Aspergillus niger [10]; 11% in the assay with Staphylococcus aureus [11]; 5 in the assay on Escherichia coli [12].
